The source of these data is patent publication US20220354852A1, “TARGETING WNT SIGNALING FOR IMPROVED GLIOMA IMMUNOTHERAPY” (CITY OF HOPE, priority 2021, published 2022).

The subject of test [1] is PBT147 and PBT030 glioma cell lines. As to the kind of experiment: Global proteomic analysis of PBT147 and PBT030. The test is classed as cell-based, human. The note with it: 72 h. The procedure: FIG. 18. Proteomics analysis of PBT147 and PBT030 cell lines treated with ICG-001 (0-10 μM) for 72 h. (A) Protein density was calculated by the difference in log normalized levels for each protein between the four treated samples and the appropriate untreated sample. (B) Calculating the difference in log levels corresponds also to looking at the log of the fold changes in each protein. For both cell lines, the log fold-change for each protein at […] was plotted against the log fold-change at 10 μg. These plots are shown in A, with the points color-coded by cell line. This highlights a positive linear relationship between the log fold changes at 5 μg and 10 μg in both cell lines. […] The heatmap has been generated using Ward's method for clustering and the Manhattan (L1) distance. To highlight patterns of similar changes in regulation over cell lines and doses, rather than absolute differences in protein levels, quantile normalization has been used before creating the heatmap, with protein levels in each sample being normalized to that of a uniform distribution on −1≤x≤1.
FIG. 19 is a table showing a proteomics analysis at 72 hours for two cell lines (PB147, PB030) treated with ICG-001 in vitro at three doses (0 μg, 5 μg, 10 μg). 1557 proteins were quantified.
Proteomics data analysis. […] To examine the effect of the drug, the difference in log normalized levels for each protein between the four treated samples and the appropriate untreated sample was calculated, which corresponds to examining the log of the fold changes in each protein after treatment. For each of the two cell lines, the log fold change for each protein at 5 μg was plotted against the log fold change at 10 μg. These plots are shown in FIG. 17, with the points colored-coded by cell line. The line of (linear) regression is calculated and shown for each cell line.
The heatmap has been constructed by using Ward's method for clustering and the Manhattan (L1) distance. To highlight patterns of similar changes in regulation over cell-lines and doses, rather than absolute differences in protein levels, quantile normalization has been used before creating the heatmap, with protein levels in each sample being normalized those of a uniform distribution on −1≤x≤1.
Proteomics analyses of the PBT147 and PBT030 glioma cell lines after treatment with ICG-001 to elucidate targeted pathways in vitro. […]
To examine the effect of ICG-001, the difference in log-normalized levels was calculated for each protein between the four treated samples and the appropriate untreated samples (which corresponds to looking at the log of the fold changes in each protein). […] The line of (linear) regression is calculated and plotted for each cell line. […]

Test [2] has as its system human patient-derived glioma (PBT017, PBT030, PBT135, PBT144, and PBT147). The experiment in a line: ICG-001 single agent on human patient-derived glioma cell lines (growth kinetics, morphology). The test is classed as cell-based. The procedure:
FIG. 2. Combinational strategy of CAR T cell-mediated tumor-antigen targeting with ICG-001 induced differentiation in glioma. […] (B) Cytotoxicity of HER2 CAR-T cells and tumor cells (1:5 ratio) was enhanced by ICG-001 at concentrations 1.25-5 μM. (C) Treatment of PBT138 patient glioma tumors with CAR T IL13Rα2+/−ICG-001.
FIG. 11. (A, B) Growth kinetics of human PBT glioma lines (PBT017, PBT030, PBT135, PBT144, and PBT147) treated with ICG-001 (0-10 μM) for 7 days and (C) mouse glioma cells (GL261, GL261-IL13, and K-luc) treated with ICG-001 (0-10 μM) for 4 days. Red boxes indicate PBT030 and PBT147 cell lines used for Nanostring and proteomics analysis. Scale bars represent S.D. of triplicate samples. (D-F) Growth kinetics of PBT017 (2,500 cells/well) treated with or without HER2-CAR T cells (500 cells/well) and with or without ICG-001 (0-5 μM). The red line is CAR T cell treatment only and the bottom three lines are with ICG-001. Experiment was done in quadruplicate and error bars indicate S.D.
PBT tumor cells lines are patient derived tumors dissociated and grown in DMEM/F12 medium, supplemented with heparin, hepes, glutamax and B27. EFG and FGF is added at the time of the culture as described previously (Brown et al. 2009). ICG-001 was kindly provided by another laboratory.
In vitro experiments. Co-culture assay of PBT cell lines grown as described above and seeded to 100,000 cells/2 ml in 6 well plates. ICG-001 is added to the cell culture in concentrations […] for 24-72 h, as described previously (Brown et al. 2013).
ICG-001 activity in vitro in human and mouse glioma cell lines. Initially, the effects of the specific CBP/β-catenin antagonist ICG-001 was tested in vitro as a single agent on human and mouse glioma cell lines (5 PBT human and 3 mouse glioma lines).

As for `O=C1[C@H](Cc2ccc(O)cc2)N2C(=O)CCN(C(=O)NCc3ccccc3)[C@H]2CN1Cc1cccc2ccccc12` [ICG-001], the “dose effect on protein fold change, PBT030 versus PBT147” value in test [1] (5 μM versus 10 μM) is “significantly greater in PBT030 than PBT147”. In addition, in test [1] (ICG-001 0, 5, and 10 μM), the “HA and LDHA protein expression” value was “loss”; the PKM1 protein expression entry was “increased”; the protein translation result is on record as “overall increase in protein translation”. The “effect on cell growth (growth kinetics)” value in test [2] (ICG-001 0-10 μM, 7 days, PBT017, PBT030, PBT135, PBT144, PBT147) was “concentration dependent cytostatic effect”. Moreover, the “differentiation and growth of PBT017 glioma cells” value in test [2] (ICG-001 0.75-10 μM, PBT017) is “differentiation and cell growth arrest”. In test [2] (all glioma lines, demonstrated with PBT017.RFP), the morphological phenotype result was “less proliferative and more differentiated phenotype”.
